Laboratory results published in the NIST ThermoML archive (doi:10.1021/je0501843).
“And” between values parts separate entries of the source, which are not always exact repeats. Equal values may be shown once.

Assay: molar heat capacity at constant volume
Settings: Fluid (supercritical or subcritical phases), Vacuum adiabatic calorimetry

FC(F)C(F)(F)F [pentafluoroethane]
Settings | molar heat capacity at constant volume
350 K, Mass density=585.7 kg/m3 | 121.87 J/K/mol and 115.26 J/K/mol
350 K, Mass density=688.6 kg/m3 | 121.82 J/K/mol
350 K, Mass density=774 kg/m3 | 115.87 J/K/mol
350 K, Mass density=882.7 kg/m3 | 111.2 J/K/mol
350 K, Mass density=975 kg/m3 | 106.81 J/K/mol and 108.22 J/K/mol
350 K, Mass density=1076.5 kg/m3 | 105.51 J/K/mol and 105.75 J/K/mol
351 K, Mass density=403.4 kg/m3 | 114.03 J/K/mol
351 K, Mass density=503 kg/m3 | 115.42 J/K/mol
351 K, Mass density=585.7 kg/m3 | 123.23 J/K/mol and 114 J/K/mol
351 K, Mass density=688.6 kg/m3 | 119.91 J/K/mol
351 K, Mass density=773.9 kg/m3 | 114.06 J/K/mol
351 K, Mass density=882.7 kg/m3 | 110.25 J/K/mol
351 K, Mass density=974.9 kg/m3 | 106.01 J/K/mol and 107.36 J/K/mol
351 K, Mass density=1076.4 kg/m3 | 105.26 J/K/mol and 105.57 J/K/mol
352 K, Mass density=403.5 kg/m3 | 110.23 J/K/mol
352 K, Mass density=503 kg/m3 | 114.08 J/K/mol
352 K, Mass density=585.7 kg/m3 | 123.57 J/K/mol and 113.02 J/K/mol
352 K, Mass density=688.6 kg/m3 | 117.02 J/K/mol
352 K, Mass density=773.9 kg/m3 | 113.16 J/K/mol
352 K, Mass density=882.6 kg/m3 | 108.96 J/K/mol
352 K, Mass density=974.8 kg/m3 | 106.96 J/K/mol and 107.86 J/K/mol
352 K, Mass density=1076.3 kg/m3 | 105.75 J/K/mol and 105.23 J/K/mol
353 K, Mass density=403.5 kg/m3 | 109.29 J/K/mol
353 K, Mass density=503 kg/m3 | 114.32 J/K/mol
353 K, Mass density=585.7 kg/m3 | 120.99 J/K/mol and 113.07 J/K/mol
353 K, Mass density=688.5 kg/m3 | 116.8 J/K/mol
353 K, Mass density=773.8 kg/m3 | 113.56 J/K/mol
353 K, Mass density=882.5 kg/m3 | 110.9 J/K/mol
353 K, Mass density=974.7 kg/m3 | 107.31 J/K/mol and 108.33 J/K/mol
353 K, Mass density=1076.2 kg/m3 | 106.21 J/K/mol and 105.67 J/K/mol
354 K, Mass density=403.6 kg/m3 | 113.22 J/K/mol
354 K, Mass density=503 kg/m3 | 115.36 J/K/mol
354 K, Mass density=585.7 kg/m3 | 119.21 J/K/mol and 111.24 J/K/mol
354 K, Mass density=688.5 kg/m3 | 117.18 J/K/mol
354 K, Mass density=773.8 kg/m3 | 113.7 J/K/mol
354 K, Mass density=882.5 kg/m3 | 112.32 J/K/mol
354 K, Mass density=974.6 kg/m3 | 107.07 J/K/mol and 107.84 J/K/mol
354 K, Mass density=1076.1 kg/m3 | 105.5 J/K/mol and 106.64 J/K/mol
355 K, Mass density=403.6 kg/m3 | 113.06 J/K/mol
355 K, Mass density=503 kg/m3 | 114.26 J/K/mol
355 K, Mass density=585.7 kg/m3 | 121.17 J/K/mol and 110.25 J/K/mol
355 K, Mass density=688.5 kg/m3 | 116.52 J/K/mol
355 K, Mass density=773.7 kg/m3 | 113.14 J/K/mol
355 K, Mass density=882.4 kg/m3 | 110.04 J/K/mol
355 K, Mass density=974.6 kg/m3 | 106.63 J/K/mol and 107.29 J/K/mol
355 K, Mass density=1076 kg/m3 | 104.47 J/K/mol and 105.31 J/K/mol
356 K, Mass density=403.6 kg/m3 | 111.13 J/K/mol
356 K, Mass density=503 kg/m3 | 114 J/K/mol
356 K, Mass density=585.7 kg/m3 | 121.39 J/K/mol and 110.52 J/K/mol
356 K, Mass density=688.4 kg/m3 | 115.44 J/K/mol
356 K, Mass density=773.7 kg/m3 | 112.56 J/K/mol
356 K, Mass density=882.4 kg/m3 | 109.83 J/K/mol
356 K, Mass density=974.5 kg/m3 | 106.76 J/K/mol and 106.98 J/K/mol
356 K, Mass density=1075.9 kg/m3 | 105.59 J/K/mol and 105.04 J/K/mol
357 K, Mass density=403.6 kg/m3 | 111.14 J/K/mol
357 K, Mass density=503 kg/m3 | 114.3 J/K/mol
357 K, Mass density=585.6 kg/m3 | 111.96 J/K/mol
357 K, Mass density=585.7 kg/m3 | 119.54 J/K/mol
357 K, Mass density=688.4 kg/m3 | 115.72 J/K/mol
357 K, Mass density=773.7 kg/m3 | 114.08 J/K/mol
357 K, Mass density=882.3 kg/m3 | 111.13 J/K/mol
357 K, Mass density=974.4 kg/m3 | 107.52 J/K/mol and 108.27 J/K/mol
357 K, Mass density=1075.8 kg/m3 | 106.52 J/K/mol and 106.05 J/K/mol
358 K, Mass density=403.6 kg/m3 | 111.56 J/K/mol
358 K, Mass density=503 kg/m3 | 112.47 J/K/mol
358 K, Mass density=585.6 kg/m3 | 118.73 J/K/mol and 110.52 J/K/mol
358 K, Mass density=688.4 kg/m3 | 115.42 J/K/mol
358 K, Mass density=773.6 kg/m3 | 113.91 J/K/mol
358 K, Mass density=882.2 kg/m3 | 110.62 J/K/mol
358 K, Mass density=974.3 kg/m3 | 107.37 J/K/mol and 108.93 J/K/mol
358 K, Mass density=1075.7 kg/m3 | 105.71 J/K/mol and 106.8 J/K/mol
359 K, Mass density=403.6 kg/m3 | 112.17 J/K/mol
359 K, Mass density=503 kg/m3 | 112.71 J/K/mol
359 K, Mass density=585.6 kg/m3 | 120.73 J/K/mol and 110.01 J/K/mol
359 K, Mass density=688.3 kg/m3 | 114.6 J/K/mol
359 K, Mass density=773.6 kg/m3 | 112.66 J/K/mol
359 K, Mass density=882.2 kg/m3 | 109.41 J/K/mol
359 K, Mass density=974.3 kg/m3 | 106.84 J/K/mol and 107.68 J/K/mol
359 K, Mass density=1075.6 kg/m3 | 105.11 J/K/mol and 106.04 J/K/mol
360 K, Mass density=403.6 kg/m3 | 111.06 J/K/mol
360 K, Mass density=503 kg/m3 | 113.85 J/K/mol
360 K, Mass density=585.6 kg/m3 | 119.64 J/K/mol and 111.46 J/K/mol
360 K, Mass density=688.3 kg/m3 | 115.44 J/K/mol
360 K, Mass density=773.5 kg/m3 | 113.01 J/K/mol
360 K, Mass density=882.1 kg/m3 | 109.1 J/K/mol
360 K, Mass density=974.2 kg/m3 | 106.66 J/K/mol and 107.71 J/K/mol
360 K, Mass density=1075.5 kg/m3 | 106.19 J/K/mol and 105.87 J/K/mol
361 K, Mass density=403.6 kg/m3 | 110.42 J/K/mol
361 K, Mass density=503 kg/m3 | 112.26 J/K/mol
361 K, Mass density=585.6 kg/m3 | 116.41 J/K/mol and 111.57 J/K/mol
361 K, Mass density=688.3 kg/m3 | 115.6 J/K/mol
361 K, Mass density=773.5 kg/m3 | 113.86 J/K/mol
361 K, Mass density=882.1 kg/m3 | 110.89 J/K/mol
361 K, Mass density=974.1 kg/m3 | 107.11 J/K/mol and 108.37 J/K/mol
361 K, Mass density=1075.4 kg/m3 | 106.59 J/K/mol
362 K, Mass density=403.6 kg/m3 | 109.78 J/K/mol
362 K, Mass density=503 kg/m3 | 111.4 J/K/mol
362 K, Mass density=585.6 kg/m3 | 117.98 J/K/mol and 110.73 J/K/mol
362 K, Mass density=688.2 kg/m3 | 115.95 J/K/mol
362 K, Mass density=773.4 kg/m3 | 112.71 J/K/mol
362 K, Mass density=882 kg/m3 | 110.8 J/K/mol
362 K, Mass density=974 kg/m3 | 107.3 J/K/mol and 108.22 J/K/mol
362 K, Mass density=1075.3 kg/m3 | 106.09 J/K/mol
363 K, Mass density=403.6 kg/m3 | 109.94 J/K/mol
363 K, Mass density=503 kg/m3 | 114.16 J/K/mol
363 K, Mass density=585.5 kg/m3 | 120.74 J/K/mol and 110.36 J/K/mol
363 K, Mass density=688.2 kg/m3 | 116.44 J/K/mol
363 K, Mass density=773.4 kg/m3 | 110.53 J/K/mol
363 K, Mass density=881.9 kg/m3 | 110.61 J/K/mol
363 K, Mass density=974 kg/m3 | 106.41 J/K/mol and 108.02 J/K/mol
363 K, Mass density=1075.2 kg/m3 | 106.37 J/K/mol
364 K, Mass density=403.6 kg/m3 | 111.1 J/K/mol
364 K, Mass density=503 kg/m3 | 113.42 J/K/mol
364 K, Mass density=585.5 kg/m3 | 119.4 J/K/mol and 109.88 J/K/mol
364 K, Mass density=688.2 kg/m3 | 114.69 J/K/mol
364 K, Mass density=773.3 kg/m3 | 110.71 J/K/mol
364 K, Mass density=881.9 kg/m3 | 110.79 J/K/mol
364 K, Mass density=973.9 kg/m3 | 106.7 J/K/mol and 108.1 J/K/mol
364 K, Mass density=1075.1 kg/m3 | 106.31 J/K/mol
365 K, Mass density=403.6 kg/m3 | 108.67 J/K/mol
365 K, Mass density=503 kg/m3 | 111.49 J/K/mol
365 K, Mass density=585.5 kg/m3 | 117.96 J/K/mol and 110.02 J/K/mol
365 K, Mass density=688.1 kg/m3 | 115.26 J/K/mol
